Values quoted from earlier work in US20110311589A1 (priority 2008, published 2011).

Test system: helminthiasis
Details: in vivo

c1ccc([C@H]2CN3CCSC3=N2)cc1 [Levamisole]
Dosages too low, ineffective in treating helminthiasis: less than 6 mg per kg of body weight
